Measured values taken from ChEMBL document CHEMBL1201862, “PubChem BioAssay data set” (2004).
The source made the active and inactive calls.

Biological target: T1, Polyadenylate-binding protein 1 (Homo sapiens, UniProt P11940)
Assay: PABP1 MLLE–PAM2 binding inhibitor potency, dose response, biochemical, fluorescence polarization, FITC-PAM2 peptide (AID 602259)
Assay type: functional
Conditions: read-out: IC50_Mean

T1 sequence (P11940 whole entry): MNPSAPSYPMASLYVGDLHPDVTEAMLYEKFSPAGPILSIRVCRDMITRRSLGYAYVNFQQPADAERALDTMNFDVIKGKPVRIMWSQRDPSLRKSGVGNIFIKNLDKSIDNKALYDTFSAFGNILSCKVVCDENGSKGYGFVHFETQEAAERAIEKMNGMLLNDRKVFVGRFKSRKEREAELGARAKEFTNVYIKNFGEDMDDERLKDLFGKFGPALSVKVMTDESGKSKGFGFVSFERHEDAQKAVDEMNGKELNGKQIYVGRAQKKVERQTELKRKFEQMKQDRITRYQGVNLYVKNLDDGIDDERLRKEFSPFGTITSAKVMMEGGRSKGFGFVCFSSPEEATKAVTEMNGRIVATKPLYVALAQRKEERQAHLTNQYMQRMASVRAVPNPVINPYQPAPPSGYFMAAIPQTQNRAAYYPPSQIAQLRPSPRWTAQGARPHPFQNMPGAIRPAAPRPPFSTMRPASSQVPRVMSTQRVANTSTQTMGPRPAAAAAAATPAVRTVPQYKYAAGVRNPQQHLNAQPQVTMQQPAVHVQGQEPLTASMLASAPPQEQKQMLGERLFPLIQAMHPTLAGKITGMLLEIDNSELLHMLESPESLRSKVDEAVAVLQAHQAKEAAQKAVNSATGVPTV

Row | SMILES | IC50
1 | Cc1c(N2C(=O)S/C(=C3\C(=O)Nc4ccccc43)C2=O)c(=O)n(-c2ccccc2)n1C | > 66 µM (inactive)
2 | CC=CCn1c(SCc2ccccc2)nc2c1c(=O)[nH]c(=O)n2C | > 66 µM (inactive)
3 | COc1ccc(C(=O)CN2CCN(S(=O)(=O)c3cccc([N+](=O)[O-])c3)CC2)cc1OC | > 66 µM (inactive)
4 | CCOC(=O)c1ccc(N2C(=O)CC(Sc3ncccn3)C2=O)cc1 (configuration not stated) | > 66 µM (inactive)
5 | N#Cc1c(O)nc(S)nc1-c1cccc(Cl)c1 | > 66 µM (inactive)
6 | O=C(O)CSc1c2ccccc2cc2ccccc12 | > 66 µM (inactive)
7 | COC(=O)c1sccc1N=C(S)Nc1cc(C)cc(C)c1 | > 66 µM (inactive)

Tested on: Streptococcus
Assay: Group A Streptococcus viability loss, dose response, counter-screen for streptokinase expression inhibitor project, luminescence, BacTiterGlo (AID 1915);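 further: potency for reduction of bacterial viability or growth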
Assay type: functional, organism-based
Conditions: not given

Row | SMILES | EC50
8 | O=C(COc1ccc(F)cc1)Nc1nc(-c2ccccn2)cs1 | 16.1 µM (active)

Biological target: Nonstructural protein 1 (Influenza A virus, UniProt Q194T2)
Assay: not given
Assay type: functional, Influenza A virus (A/California/07/2009(H1N1))
Conditions: not given

Nonstructural protein 1, sequence (Q194T2 whole entry): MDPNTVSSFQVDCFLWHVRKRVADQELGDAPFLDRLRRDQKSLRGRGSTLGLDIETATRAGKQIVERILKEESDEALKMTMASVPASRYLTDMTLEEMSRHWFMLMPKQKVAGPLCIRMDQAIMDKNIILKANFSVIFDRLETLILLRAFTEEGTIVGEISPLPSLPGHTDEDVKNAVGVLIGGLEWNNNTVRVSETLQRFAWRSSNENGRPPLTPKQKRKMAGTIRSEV

Row | SMILES | IC50
9 | O=C(CNCCC1=CCCCC1)Nc1ccc(N2CCCCCC2)cc1 | 13.8 µM (active)
10 | CCOc1ccccc1C(=O)N/N=C/c1cccc2cccnc12 | 32.3 µM (active)
11 | COc1ccc(N=NC2C(=O)N(c3ccccc3)N=C2C)cc1 (configuration not stated) | 27.1 µM (active)
12 | CCN(CC)CCNC(=O)c1ccc(NC(=O)/C=C/c2ccc3ccccc3n2)cc1 | > 100 µM (active)
13 | Cc1c(NC(=S)N/N=C\c2ccccc2O)c(=O)n(-c2ccccc2)n1C | 6.13 µM (active)

Tested on: not listed separately
Assay: C. albicans growth with fluconazole, confirmation, fluorescence, retest (AID 2467)
Assay type: functional, cell-based
Conditions: not given

Row | SMILES | EC50
14 | O=C(COc1ccc(F)cc1)Nc1nc(-c2ccccn2)cs1 | 2.59 µM (active)

Tested on: H9c2;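 further: confirmatory concentration-response retest of ultra-high-throughput screening hits for modulation of myocardial damage; cell death induced by hydrogen peroxide oxidative stress; compound pretreatment for 60 min then peroxide exposure for 2 h; potency is for protecting the cells against peroxide damage rather than for killing them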
Assay: cells
Assay type: functional, cell-based
Conditions: Rattus norvegicus, H9c2, Myocardium

Row | SMILES | IC50
15 | CCOc1ccccc1C(=O)N/N=C/c1cccc2cccnc12 | 12.4 µM (active)
16 | O=C(COc1ccc(F)cc1)Nc1nc(-c2ccccn2)cs1 | 16.1 µM (active)

Biological target: T1, Polyadenylate-binding protein 1
Assay: PABP1 MLLE–PAM2 interaction inhibitors, dose response, miRNA deadenylation inhibitor project, biochemical, fluorescence polarization, Cy5-PAM2 peptide, secondary (AID 602260)
Assay type: functional
Conditions: read-out: IC50_Mean

Row | SMILES | IC50
17 | Cc1c(N2C(=O)S/C(=C3\C(=O)Nc4ccccc43)C2=O)c(=O)n(-c2ccccc2)n1C | > 66 µM (inactive)
18 | CC=CCn1c(SCc2ccccc2)nc2c1c(=O)[nH]c(=O)n2C | > 66 µM (inactive)
19 | COc1ccc(C(=O)CN2CCN(S(=O)(=O)c3cccc([N+](=O)[O-])c3)CC2)cc1OC | > 66 µM (inactive)
20 | CCOC(=O)c1ccc(N2C(=O)CC(Sc3ncccn3)C2=O)cc1 (configuration not stated) | > 66 µM (inactive)
21 | N#Cc1c(O)nc(S)nc1-c1cccc(Cl)c1 | > 66 µM (inactive)
22 | O=C(O)CSc1c2ccccc2cc2ccccc12 | > 66 µM (inactive)
23 | COC(=O)c1sccc1N=C(S)Nc1cc(C)cc(C)c1 | > 66 µM (inactive)

Tested on: not listed separately
Assay: growth suppression of beta-catenin-knockout colon cells, dose response, cell-based, HCT116, human colon tumor (AID 1045);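 further: HCT116 colon tumor cells with beta catenin knocked out; cells exposed to compound for 60 hours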
Assay type: functional
Conditions: not given

Row | SMILES | EC50
24 | O=C(CNCCC1=CCCCC1)Nc1ccc(N2CCCCCC2)cc1 | 12.3 µM (active)

Tested on: Streptococcus sp. 'group A'
Assay: growth inhibition of control SK(-) GAS strain, dose response, counter-screen for streptokinase expression inhibitor project, luminescence, kanamycin, BacTiterGlo, confirmation (AID 1900)
Assay type: functional, organism-based
Conditions: not given

Row | SMILES | EC50
25 | O=C(COc1ccc(F)cc1)Nc1nc(-c2ccccn2)cs1 | 7.19 µM (active)

Tested on: not listed separately
Assay: growth suppression of PTEN-null colon cells, dose response, cell-based, HCT116 PTEN knockout (AID 1047);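 further: HCT116 colon tumor cells with PTEN knocked out; cells exposed to compound for 60 hours before readout; potency for loss of cell viability measured by luminescence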
Assay type: functional
Conditions: not given

Row | SMILES | EC50
26 | O=C(CNCCC1=CCCCC1)Nc1ccc(N2CCCCCC2)cc1 | 15.3 µM (active)

Biological target: T2, Streptokinase A (Streptococcus pyogenes serotype M1, UniProt P10520)
T2 sequence (P10520 whole entry): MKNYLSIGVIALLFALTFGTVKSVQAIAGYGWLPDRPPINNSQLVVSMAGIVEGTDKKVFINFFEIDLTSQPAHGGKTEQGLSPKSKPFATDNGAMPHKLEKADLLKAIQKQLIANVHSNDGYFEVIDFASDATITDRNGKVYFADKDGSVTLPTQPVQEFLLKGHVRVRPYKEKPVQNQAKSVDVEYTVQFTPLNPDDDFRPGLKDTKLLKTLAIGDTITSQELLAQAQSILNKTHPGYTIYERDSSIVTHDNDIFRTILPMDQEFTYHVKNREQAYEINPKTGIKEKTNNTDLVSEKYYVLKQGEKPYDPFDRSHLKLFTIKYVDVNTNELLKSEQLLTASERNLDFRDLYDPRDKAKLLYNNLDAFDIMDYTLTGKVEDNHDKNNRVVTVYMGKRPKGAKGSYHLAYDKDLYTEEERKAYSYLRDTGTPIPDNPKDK
Assay: S. pyogenes streptokinase expression inhibitors, potency, dose response, plasminogen activation absorbance, OD405 (AID 1914);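 further: secreted streptokinase activity via plasminogen activation per viability signal from cell pellet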
Assay type: functional, Streptococcus pyogenes M1 GAS
Conditions: not given

Row | SMILES | EC50
27 | O=C(COc1ccc(F)cc1)Nc1nc(-c2ccccn2)cs1 | > 150 µM (not active)

Biological target: Paired box protein Pax-8 (Homo sapiens, UniProt Q06710)
Assay: inhibitors of PAX8-driven TPO luciferase reporter, dose response, RMG-I cells, cherry-pick (AID 687027);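 further: luciferase reporter driven by Pax8 target thyroperoxidase promoter measured by SteadyGlo luminescence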
Assay type: functional, cell-based
Conditions: not given

Paired box protein Pax-8, sequence (Q06710 whole entry): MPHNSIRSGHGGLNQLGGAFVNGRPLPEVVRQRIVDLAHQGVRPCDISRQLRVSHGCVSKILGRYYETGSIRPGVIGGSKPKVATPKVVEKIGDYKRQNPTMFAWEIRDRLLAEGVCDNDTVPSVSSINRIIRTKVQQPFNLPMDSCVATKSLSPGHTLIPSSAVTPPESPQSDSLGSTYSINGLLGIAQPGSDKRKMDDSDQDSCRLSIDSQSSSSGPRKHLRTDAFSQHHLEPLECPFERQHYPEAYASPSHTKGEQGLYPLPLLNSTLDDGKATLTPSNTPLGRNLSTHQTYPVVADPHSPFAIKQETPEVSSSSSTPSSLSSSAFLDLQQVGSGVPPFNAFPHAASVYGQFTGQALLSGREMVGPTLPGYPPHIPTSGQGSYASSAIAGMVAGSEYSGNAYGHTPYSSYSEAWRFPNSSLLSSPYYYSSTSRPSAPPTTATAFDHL

Row | SMILES | AC50
28 | Cc1cc(C)c(C(=O)/C=C/c2cccc3ccccc23)c(O)n1 | 5.27 µM (active)
29 | C[C@@H]1CCCCO[C@@H](CN(C)C(=O)Nc2ccc(C(F)(F)F)cc2)[C@H](C)CN([C@@H](C)CO)C(=O)c2cc(NC(=O)Nc3ccc(C(F)(F)F)cc3)ccc2O1 | 2.31 µM (active)
30 | C[C@@H]1CN([C@H](C)CO)S(=O)(=O)c2ccc(C#CC3CCCC3)cc2O[C@@H]1CN(C)C(=O)Cc1ccncc1 | 16.5 µM (active)

Biological target: T3, Heat shock factor protein 1 (Mus musculus, UniProt P38532)
T3 sequence (P38532 whole entry): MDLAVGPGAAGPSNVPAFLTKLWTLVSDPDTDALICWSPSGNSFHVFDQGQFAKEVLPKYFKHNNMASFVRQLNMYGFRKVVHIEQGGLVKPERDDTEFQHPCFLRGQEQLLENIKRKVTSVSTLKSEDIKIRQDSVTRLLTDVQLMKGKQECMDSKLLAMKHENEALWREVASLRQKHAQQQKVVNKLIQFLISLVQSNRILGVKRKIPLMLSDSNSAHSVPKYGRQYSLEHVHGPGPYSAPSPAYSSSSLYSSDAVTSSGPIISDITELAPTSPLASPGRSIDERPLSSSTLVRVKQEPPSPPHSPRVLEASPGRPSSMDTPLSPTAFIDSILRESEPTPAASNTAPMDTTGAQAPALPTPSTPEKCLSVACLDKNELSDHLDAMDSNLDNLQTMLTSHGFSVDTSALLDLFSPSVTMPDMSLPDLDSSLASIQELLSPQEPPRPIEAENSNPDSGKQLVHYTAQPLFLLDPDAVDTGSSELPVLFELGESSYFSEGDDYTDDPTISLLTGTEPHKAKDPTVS
Assay: HSF1 potentiators in luciferase reporter cells, confirmation, cell-based, NIH3T3, luminescence, dose retest (AID 435004);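 further: stress induced by proteasome inhibitor MG132 added 30 min after compound; luciferase reporter driven by HSF1 response element in NIH3T3 cells; actives raise luminescence as potentiators of the MG132 stress response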
Assay type: functional
Conditions: not given

Row | SMILES | EC50
31 | Cc1cc(C)c(C(=O)/C=C/c2cccc3ccccc23)c(O)n1 | 6.62 µM (active)

Tested on: not listed separately
Assay: NIH-3T3 fibroblast cytotoxicity, dose response, cytotoxicity control, cell-based, fluorescence, Alamar Blue, secondary assay (AID 2327);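 further: NIH-3T3 mouse fibroblasts cultured with fluconazole at 8 µg/mL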
Assay type: functional
Conditions: not given

Row | SMILES | EC50
32 | O=C(COc1ccc(F)cc1)Nc1nc(-c2ccccn2)cs1 | > 150 µM (inactive)

Biological target: Glyceraldehyde-3-phosphate dehydrogenase (Homo sapiens, UniProt P04406)
Assay: not given
Conditions: not given

Glyceraldehyde-3-phosphate dehydrogenase, sequence (P04406 whole entry): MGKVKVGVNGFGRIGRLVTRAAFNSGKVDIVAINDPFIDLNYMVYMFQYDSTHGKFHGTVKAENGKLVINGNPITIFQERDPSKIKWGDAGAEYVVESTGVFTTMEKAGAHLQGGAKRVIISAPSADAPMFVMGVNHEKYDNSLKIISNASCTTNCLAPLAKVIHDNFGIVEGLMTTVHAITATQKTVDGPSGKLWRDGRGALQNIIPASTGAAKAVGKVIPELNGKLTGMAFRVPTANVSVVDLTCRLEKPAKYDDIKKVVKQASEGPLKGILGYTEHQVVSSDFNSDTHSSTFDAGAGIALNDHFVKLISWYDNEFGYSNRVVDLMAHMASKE

Row | SMILES | IC50
33 | O=C1C(Cl)=C(N2CCN(CCOCCO)CC2)C(=O)N1c1ccc(Cl)nc1 | > 50 µM (inconclusive)
34 | COc1ccc(F)cc1S(=O)(=O)Nc1cnc2ccccc2c1 | > 10 µM (inconclusive)
35 | Cc1cccc(N2C(=O)C(Cl)=C(N3CCN(Cc4ccc5c(c4)OCO5)CC3)C2=O)c1 | > 50 µM (inconclusive)
36 | O=C(O)c1cc(S(=O)(=O)Nc2cccc(Cl)c2)ccc1O | > 100 µM (not active)
37 | NS(=O)(=O)c1ccc(NS(=O)(=O)c2ccc(O)c(C(=O)O)c2)cc1 | > 100 µM (not active)
